Molecular target: full-length human PIKFYVE (Homo sapiens (Human), UniProt Q9Y2I7, L932S/Q1183K/Q995L/S1033A/S696N/T998S)
Assay: PIKfyve biochemical assay (ADP-Glo Kinase assay, Carna Biosciences)
Conditions: class symbols
From the text: PIKfyve Biochemical Assay. The biochemical […] inhibition assays were run by Carna Biosciences according to proprietary methodology based on the Promega […] Kinase assay. […] NP_055855.2] was expressed as N-terminal GST-fusion protein (265 kDa) using baculovirus expression system. GST-PIKFYVE was purified by using glutathione sepharose chromatography and used in an ADP-GloTM Kinase assay (Promega). Reactions were set up by adding the test compound solution, substrate solution, ATP solution and kinase solution, each at 4× final concentrations. Reactions were prepared with assay buffer (50 mM MOPS, 1 mM DTT, pH7.2), mixed, and incubated in black 384 well polystyrene plates for 1 hour at room temperature. ADP-Glo^TM reagent was then added for 40 minutes, followed by kinase detection reagent for an additional 40 minutes. The kinase activity was evaluated by detecting relative light units on a luminescence plate reader. […] IC50 values were calculated from concentration vs % inhibition curves by fitting to a four-parameter logistic curve. […] The biochemical […] inhibition assays were run by Carna Biosciences according to proprietary methodology based on the Promega ADP-GloTM Kinase assay. […] GST-PIKFYVE was purified by using glutathione sepharose chromatography and used in an ADP-GIoTM Kinase assay (Promega). Reactions were set up by adding the test compound solution, substrate solution, ATP solution and kinase solution, each at 4× final concentrations. Reactions were prepared with assay buffer (50 mM MOPS, 1 mM DTT, pH7.2), mixed, and incubated in black 384 well polystyrene plates for 1 hour at room temperature. ADP-GIoTM reagent was then added for 40 minutes, followed by kinase detection reagent for an additional 40 minutes. The kinase activity was evaluated by detecting relative light units on a luminescence plate reader. […] IC50 values were calculated from concentration vs % inhibition curves by fitting to a four-parameter logistic curve. […] The same compounds were also tested in both FAB1 and PIKFYVE TDP-43 yeast models.

Sequence of full-length human PIKFYVE (Q9Y2I7 whole entry S696N/L932S/Q995L/T998S/S1033A/Q1183K): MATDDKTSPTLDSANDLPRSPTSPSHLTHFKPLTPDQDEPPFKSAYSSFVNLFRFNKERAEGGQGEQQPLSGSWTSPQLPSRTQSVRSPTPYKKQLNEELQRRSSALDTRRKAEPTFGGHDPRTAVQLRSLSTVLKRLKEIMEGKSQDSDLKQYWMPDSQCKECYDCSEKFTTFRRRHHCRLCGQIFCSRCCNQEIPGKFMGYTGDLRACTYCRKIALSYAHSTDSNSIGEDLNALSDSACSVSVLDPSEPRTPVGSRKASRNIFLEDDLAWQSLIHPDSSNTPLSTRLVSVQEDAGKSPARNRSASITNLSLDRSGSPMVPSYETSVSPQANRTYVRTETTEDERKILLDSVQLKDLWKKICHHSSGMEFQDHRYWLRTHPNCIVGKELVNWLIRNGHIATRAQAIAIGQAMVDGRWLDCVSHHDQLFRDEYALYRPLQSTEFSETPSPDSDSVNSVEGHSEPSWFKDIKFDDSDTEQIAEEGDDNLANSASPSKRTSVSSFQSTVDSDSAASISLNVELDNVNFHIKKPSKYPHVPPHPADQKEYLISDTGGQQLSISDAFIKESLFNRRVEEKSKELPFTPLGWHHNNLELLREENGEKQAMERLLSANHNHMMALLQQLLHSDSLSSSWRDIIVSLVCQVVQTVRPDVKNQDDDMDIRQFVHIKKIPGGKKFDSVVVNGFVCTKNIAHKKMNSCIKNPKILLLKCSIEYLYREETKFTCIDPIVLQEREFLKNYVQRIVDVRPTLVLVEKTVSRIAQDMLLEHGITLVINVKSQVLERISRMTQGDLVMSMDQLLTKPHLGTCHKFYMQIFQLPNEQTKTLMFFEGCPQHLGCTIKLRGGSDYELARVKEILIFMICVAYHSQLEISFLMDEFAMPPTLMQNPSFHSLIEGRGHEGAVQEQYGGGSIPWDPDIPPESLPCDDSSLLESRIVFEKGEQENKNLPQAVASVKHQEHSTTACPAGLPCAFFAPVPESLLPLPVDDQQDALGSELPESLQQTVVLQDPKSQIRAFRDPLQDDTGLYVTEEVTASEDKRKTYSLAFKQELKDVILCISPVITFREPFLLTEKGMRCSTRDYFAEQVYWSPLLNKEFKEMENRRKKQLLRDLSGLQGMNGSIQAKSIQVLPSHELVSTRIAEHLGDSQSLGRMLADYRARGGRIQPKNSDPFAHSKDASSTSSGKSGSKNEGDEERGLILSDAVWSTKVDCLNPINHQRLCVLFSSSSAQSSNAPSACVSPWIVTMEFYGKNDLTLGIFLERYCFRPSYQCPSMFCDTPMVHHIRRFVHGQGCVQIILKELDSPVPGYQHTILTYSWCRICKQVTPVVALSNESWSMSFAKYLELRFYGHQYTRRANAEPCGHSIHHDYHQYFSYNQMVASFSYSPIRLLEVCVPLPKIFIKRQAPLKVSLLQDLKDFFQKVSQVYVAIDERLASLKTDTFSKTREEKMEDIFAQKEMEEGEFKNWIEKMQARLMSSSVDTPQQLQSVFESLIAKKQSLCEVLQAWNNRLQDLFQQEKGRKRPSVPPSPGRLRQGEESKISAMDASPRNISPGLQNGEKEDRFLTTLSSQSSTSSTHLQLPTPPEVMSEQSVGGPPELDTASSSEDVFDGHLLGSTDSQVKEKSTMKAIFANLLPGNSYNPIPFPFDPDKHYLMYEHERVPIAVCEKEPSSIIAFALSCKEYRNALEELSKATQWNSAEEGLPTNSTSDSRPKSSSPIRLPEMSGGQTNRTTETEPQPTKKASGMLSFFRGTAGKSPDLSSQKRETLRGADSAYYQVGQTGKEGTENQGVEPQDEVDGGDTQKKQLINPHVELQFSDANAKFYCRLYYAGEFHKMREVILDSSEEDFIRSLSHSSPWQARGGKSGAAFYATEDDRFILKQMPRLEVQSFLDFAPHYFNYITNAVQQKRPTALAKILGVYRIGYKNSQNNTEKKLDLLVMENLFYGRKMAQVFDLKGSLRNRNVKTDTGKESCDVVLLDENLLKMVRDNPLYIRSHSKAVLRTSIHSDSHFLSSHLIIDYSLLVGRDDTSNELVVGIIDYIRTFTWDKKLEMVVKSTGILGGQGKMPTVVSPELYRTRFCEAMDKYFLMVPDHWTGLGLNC

| Compound | IC50 [nM] |
| --- | --- |
| COc1cccc(-c2ccn(-c3cc(N4CCOCC4)n4nc(C5CCCO5)cc4n3)n2)c1 (stereo not drawn) [Compound 93, 4-(5-(3-(3-methoxyphenyl)-1H-pyrazol-1-yl)-2-(tetrahydrofuran-2-yl)pyrazolo[1,5-a]pyrimidin-7-yl)morpholine] | 10 to 100 |
| Fc1cc(N2CCOCC2)n2nc(-c3ccncc3)cc2n1 [Compound 29, 4-(5-fluoro-2-(pyridin-4-yl)pyrazolo[1,5-a]pyrimidin-7-yl)morpholine] | 100 to 1000 |
| O=C1CCC(c2ccccc2)CN1c1cc(N2CCOCC2)n2nc(-c3ccncc3)cc2n1 (stereo not drawn) [Compound 26, 1-(7-morpholino-2-(pyridin-4-yl)pyrazolo[1,5-a]pyrimidin-5-yl)-5-phenylpiperidin-2-one] | 1000 to 10000 |
| O=c1ccc(-c2ccccc2)nn1-c1cc(N2CCOCC2)n2nc(-c3ccncc3)cc2n1 [Compound 3, 2-(7-morpholino-2-(pyridin-4-yl)pyrazolo[1,5-a]pyrimidin-5-yl)-6-phenylpyridazin-3(2H)-one] | 100 to 1000 |
| c1ccc(Cc2cccnc2-c2cc(N3CCOCC3)n3nc(-c4ccncc4)cc3n2)cc1 [Compound 40, 4-(5-(3-benzylpyridin-2-yl)-2-(pyridin-4-yl)pyrazolo[1,5-a]pyrimidin-7-yl)morpholine] | 1000 to 10000 |
| CN1CCN(c2cc(N3CCOCC3)n3nc(-c4ccncc4)cc3n2)CC1c1ccccc1 (stereo not drawn) [Compound 38, 4-(5-(4-methyl-3-phenylpiperazin-1-yl)-2-(pyridin-4-yl)pyrazolo[1,5-a]pyrimidin-7-yl)morpholine] | 1000 to 10000 |
| O=c1c(-c2ccccc2)c(-c2ccccc2)cnn1-c1cc(N2CCOCC2)n2nc(-c3ccncc3)cc2n1 [Compound 6, 2-(7-morpholino-2-(pyridin-4-yl)pyrazolo[1,5-a]pyrimidin-5-yl)-4,5-diphenylpyridazin-3(2H)-one] | 1000 to 10000 |
| c1ccc(-c2nc(-c3cc(N4CCOCC4)n4nc(-c5ccncc5)cc4n3)ns2)cc1 [Compound 128, 4-(5-(5-phenyl-1,2,4-thiadiazol-3-yl)-2-(pyridin-4-yl)pyrazolo[1,5-a]pyrimidin-7-yl)morpholine] | 10 to 100 |
| c1c(-n2cc3c(n2)CCOC3)nc2cc(C3CCCO3)nn2c1N1CCOCC1 (stereo not drawn) [Compound 99, 2-(7-morpholino-2-(tetrahydrofuran-2-yl)pyrazolo[1,5-a]pyrimidin-5-yl)-2,4,6,7-tetrahydropyrano[4,3-c]pyrazole] | > 10000 |
| CN1C(=O)CN(c2cc(N3CCOCC3)n3nc(-c4ccncc4)cc3n2)CC1c1ccccc1 (stereo not drawn) [Compound 37, 1-methyl-4-(7-morpholino-2-(pyridin-4-yl)pyrazolo[1,5-a]pyrimidin-5-yl)-6-phenylpiperazin-2-one] | 1000 to 10000 |
| Oc1cc(-c2ccccc2F)nn1-c1cc(N2CCOCC2)n2nc(-c3ccncc3)cc2n1 [Compound 53, 3-(2-fluorophenyl)-1-(7-morpholino-2-(pyridin-4-yl)pyrazolo[1,5-a]pyrimidin-5-yl)-1H-pyrazol-5-ol] | 10 to 100 |
| CN1CCN(c2cc(N3CCOCC3)n3nc(-c4ccncc4)cc3n2)C(=O)C1c1ccccc1 (stereo not drawn) [Compound 27, 4-methyl-1-(7-morpholino-2-(pyridin-4-yl)pyrazolo[1,5-a]pyrimidin-5-yI)-3-phenylpiperazin-2-one] | 1000 to 10000 |
| c1ccc(-c2nsc(-c3cc(N4CCOCC4)n4nc(-c5ccncc5)cc4n3)n2)cc1 [Compound 127, 4-(5-(3-phenyl-1,2,4-thiadiazol-5-yl)-2-(pyridin-4-yl)pyrazolo[1,5-a]pyrimidin-7-yl)morpholine] | 10 to 100 |
| c1ccc(C2CN(c3cc(N4CCOCC4)n4nc(-c5ccncc5)cc4n3)C2)cc1 [Compound 32, 4-(5-(3-phenylazetidin-1-yl)-2-(pyridin-4-yl)pyrazolo[1,5-a]pyrimidin-7-yl)morpholine] | 1000 to 10000 |
| Fc1cncc(-c2ccn(-c3cc(N4CCOCC4)n4nc(-c5ccncc5)cc4n3)n2)c1 [Compound 60, 4-(5-(3-(5-fluoropyridin-3-yl)-1H-pyrazol-1-yl)-2-(pyridin-4-yl)pyrazolo[1,5-a]pyrimidin-7-yl)morpholine] | 100 to 1000 |
| c1cc(-c2cc3nc(-n4ccc(C5CCCNC5)n4)cc(N4CCOCC4)n3n2)ccn1 (single isomer, unassigned) [Compound 76, 4-(5-(3-(piperidin-3-yl)-1H-pyrazol-1-yl)-2-(pyridin-4-yl)pyrazolo[1,5-a]pyrimidin-7-yl)morpholine] | 100 to 1000 |
| c1ccc(Cc2nccc(-c3cc(N4CCOCC4)n4nc(-c5ccncc5)cc4n3)n2)cc1 [Compound 140, 4-(5-(2-benzylpyrimidin-4-yl)-2-(pyridin-4-yl)pyrazolo[1,5-a]pyrimidin-7-yl)morpholine] | 100 to 1000 |
| CN1CC(c2cc(N3CCOCC3)n3nc(-c4ccncc4)cc3n2)CC1c1ccccc1 (stereo not drawn) [Compound 19, 4-(5-(1-methyl-5-phenylpyrrolidin-3-yl)-2-(pyridin-4-yl)pyrazolo[1,5-a]pyrimidin-7-yl)morpholine] | 1000 to 10000 |
| N#Cc1cc(N2CCOCC2)n2nc(-c3ccncc3)cc2n1 [Compound 103, 7-morpholino-2-(pyridin-4-yl)pyrazolo[1,5-a]pyrimidine-5-carbonitrile] | > 10000 |
| c1ccc(Oc2cccnc2-c2cc(N3CCOCC3)n3nc(-c4ccncc4)cc3n2)cc1 [Compound 41, 4-(5-(3-phenoxypyridin-2-yl)-2-(pyridin-4-yl)pyrazolo[1,5-a]pyrimidin-7-yl)morpholine] | 100 to 1000 |
| OCCc1ccn(-c2cc(N3CCOCC3)n3nc(-c4ccncc4)cc3n2)n1 [Compound 80, 2-(1-(7-morpholino-2-(pyridin-4-yl)pyrazolo[1,5-a]pyrimidin-5-yl)-1H-pyrazol-3-yl)ethan-1-ol] | 100 to 1000 |
| Fc1ccc(Oc2ncccc2-c2cc(N3CCOCC3)n3nc(-c4ccncc4)cc3n2)cc1 [Compound 138, 4-(5-(2-(4-fluorophenoxy)pyridin-3-yl)-2-(pyridin-4-yl)pyrazolo[1,5-a]pyrimidin-7-yl)morpholine] | 100 to 1000 |
| CNC(COc1cc(N2CCOCC2)n2nc(-c3ccncc3)cc2n1)c1cccc(C)c1 (stereo not drawn) [Compound 126, N-methyl-2-((7-morpholino-2-(pyridin-4-yl)pyrazolo[1,5-a]pyrimidin-5-yl)oxy)-1-(m-tolyl)ethan-1-amine] | 1000 to 10000 |
| c1ccc(Cc2ncccc2-c2cc(N3CCOCC3)n3nc(-c4ccncc4)cc3n2)cc1 [Compound 39, 4-(5-(2-benzylpyridin-3-yl)-2-(pyridin-4-yl)pyrazolo[1,5-a]pyrimidin-7-yl)morpholine] | 1000 to 10000 |
| c1cc(-c2cc3nc(-n4ccc(C5CCCNC5)n4)cc(N4CCOCC4)n3n2)ccn1 (stereo not drawn) [Compound 67, 4-(5-(3-(piperidin-3-yl)-1H-pyrazol-1-yl)-2-(pyridin-4-yl)pyrazolo[1,5-a]pyrimidin-7-yl)morpholine] | 100 to 1000 |
| c1cn(-c2cc(N3CCOCC3)n3nc(C4CCCO4)cc3n2)nc1C1CCOCC1 (stereo not drawn) [Compound 95, 4-(5-(3-(tetrahydro-2H-pyran-4-yl)-1H-pyrazol-1-yl)-2-(tetrahydrofuran-2-yl)pyrazolo[1,5-a]pyrimidin-7-yl)morpholine] | > 10000 |

Same assay, conditions: numeric values

| Compound | IC50 [nM] |
| --- | --- |
| c1ccc(Oc2nccc(-c3cc(N4CCOCC4)n4nc(-c5ccncc5)cc4n3)n2)cc1 [Compound 141, 4-(5-(2-phenoxypyrimidin-4-yl)-2-(pyridin-4-yl)pyrazolo[1,5-a]pyrimidin-7-yl)morpholine] | 1000 |

— patent US20250353852A1, “COMPOUNDS AND COMPOSITIONS THAT INHIBIT PIKFYVE” (Kineta, Inc., priority 2021, published 2025)
